Data reported in patent publication US20040224995A1 (University of North Texas Health Science Center at Fort …, priority 2003, published 2004).

How the values were obtained:
HT-22 cells = assay: HT-22 cell viability during glutamate exposure (calcein AM assay); format: cell-based; settings: for neuroprotective effect of prostaglandins against glutamate toxicity: added 24 h before glutamate (15 mM), viability 15 h later
From the text: Although not wanting to be bound by theory, the toxicity of glutamate in HT-22 (32) and C6 glioma (33) cell lines is mediated through oxidative stress. HT-22 cells lack ionotropic N-methyl-D-aspartate (“NMDA”) glutamate receptors, and the glutamate-induced cell death appears to occur via a slow onset oxidative stress (32,34,35). Glutamate blocks cystine uptake by inhibiting the glutamate/cystine antiporter in both HT-22 (32) and C6 glioma (33) cell lines. Since cysteine is required for glutathione (“GSH”) synthesis, the intracellular concentration of GSH decreases as a consequence. BSO depletes intracellular glutathione by inhibiting γ-glutamylcysteine synthetase, the rate-limiting enzyme in glutathione synthesis (33). […] Troglitazone further protected HT-22 (FIG. 14) and RGC-5 (FIG. 15) against BSO. The cell viability was taken at time points around about 14 to 24 hours post-insult time. In some of the experiments, the viability of cells was determined using 2.5 μM calcein AM assay in phosphate-buffered saline (PBS 1×). After 25 minutes of incubation, live cells were distinguished by the presence of intracellular esterase activity, which cleaves the calcein AM dye, producing a bright green fluorescence, as shown in FIG. 22. Viability was measured in Relative Fluorescent Units (“RFU”), and expressed as percentage of vehicle-treated control values.
15d-PGJ2 and two TZD's (e.g. troglitazone and ciglitazone) were tested for their ability to protect HT-22 cells against glutamate toxicity. […] HT-22 cells were treated with 15-dPGJ2 twenty-four hours prior to a glutamate insult (15 mM). […] The data of FIG. 24 was quantified using the calcein AM assay (see FIG. 22). Results are expressed in % survival of the control (non-glutamate-treated) cultures. DMSO received the vehicle only for 15d-PGJ2. Shown are mean±SEM for 6. The asterisk (“*”) indicates p<0.05 vs. respective control.
In order to conduct these experiments, the following compounds: PGA1; PGA2; PGJ2; Δ^12PGJ2; and 15d-PGJ2 were ordered from Biomol, Plymouth Meeting, Pa. HT-22, an immortalized mouse hippocampal cell line, C6 rat glioma, RGC-5 retinal ganglion cells were used. Cells were grown to confluence in DMEM media, and supplemented with 10% charcoal/dextran-treated fetal bovine serum (“FBS”), and […] gentamycin at 37° C. under 95% air, 5% CO2. HT-22, C6, and RGC-5 cells were plated at a density of 50,000, 35,000, and 10,000 cells/ml, respectively, in 96-well plates. Wells were pre-treated with cyclopentenone PGs at various times prior to being subjected to glutamate, hydrogen peroxide (H2O2), or BSO insults.
The WY-14643, Ciglitazone, Troglitazone, 9-cis retinoic acid, and 15d-PGJ2 compounds were purchased from Biomol (Plymouth Meeting, Pa.). L-165041 and L-783483 were kindly provided by Merck Laboratories. The cell lines used were HT-22, an immortalized mouse hippocampal cell line, and SK—N—SH, a human neuroblastoma cell line. The HT-22 cells were obtained from David Schubert (Salk Institute, San Diego, Calif.). The HT-22 line was originally selected from HT-4 cells based on glutamate sensitivity. HT-4 cells were immortalized from primary hippocampal neurons using a temperature-sensitive SV-40 T antigen (Morimoto and Koshland, 1990). SK—N—SH were obtained from ATCC (Manassas, Va.). HT-22 and SK—N—SH cells were grown to confluence in DMEM and RPMI-1640 media, respectively, and supplemented with 10% charcoal/dextran-treated fetal bovine serum (FBS), and 5 mg/ml gentamycin at 37° C. under 95% air, 5% CO2. HT-22 cells were plated at a density of 50,000 cells/ml (5,000 cells/well), and SK—N—SH were plated at a density of 120,000 to 150,000 cells/ml (12,000 to 15,000 cells/well) in 96-well plates. In most studies, wells were pre-treated with PPAR ligands over a wide dose range at various times prior to being subjected to either glutamate, hydrogen peroxide (H2O2), or serum deprivation insults. In some studies, the insults were applied prior to the addition of the PPAR ligand. […]

PPAR-γ = settings: cited from earlier work
PPARγ = settings: Berger et al., 1999; cited from earlier work
PPAR-β = target: T1, PPAR-β (Homo sapiens, UniProt Q03181); settings: Berger et al., 1999; read-out: EC50 for activation of PPAR-β; cited from earlier work
T1 sequence (Q03181 1-441): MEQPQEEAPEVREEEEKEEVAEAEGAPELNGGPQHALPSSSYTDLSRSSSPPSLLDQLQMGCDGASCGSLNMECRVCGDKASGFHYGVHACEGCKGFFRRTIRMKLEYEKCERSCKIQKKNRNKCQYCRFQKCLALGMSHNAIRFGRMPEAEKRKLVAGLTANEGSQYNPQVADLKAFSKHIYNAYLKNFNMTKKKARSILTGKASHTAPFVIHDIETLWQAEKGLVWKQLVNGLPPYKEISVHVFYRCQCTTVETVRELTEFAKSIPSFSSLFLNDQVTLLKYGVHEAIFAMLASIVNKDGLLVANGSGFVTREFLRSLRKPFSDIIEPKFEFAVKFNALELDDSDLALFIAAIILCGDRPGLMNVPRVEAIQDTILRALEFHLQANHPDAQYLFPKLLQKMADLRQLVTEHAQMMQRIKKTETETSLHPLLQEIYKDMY

[1] = system: infarct after MCA occlusion; settings: intraventricular, 660 ng, 30 min before MCA occlusion; Satoh et al.; cited from earlier work
PPAR alpha = settings: Issemann and Green, 1990; read-out: EC50 for activation of PPAR alpha; cited from earlier work

CCCCC[C@H](O)/C=C/C1=C(C/C=C\CCCC(=O)O)C(=O)CC1 [PGB2]
neuroprotective effect of prostaglandins against glutamate toxicity (HT-22 cells): did not display any neuroprotective effects

CC(C)(c1ccc(OCC2CO2)cc1)c1ccc(OCC2CO2)cc1 (stereo not shown) [BADGE, Bisphenol diglycidyl ether]
toxicity in the cell model (HT-22 cells; at concentrations close to Ki (100 μM)): showed some toxicity
Ki (PPAR-γ; read-out: Ki value as PPARγ antagonist): 100 µM

CCCCC[C@H](O)/C=C/[C@H]1C=CC(=O)[C@@H]1C/C=C\CCCC(=O)O [PGA2]
neuroprotective effect of prostaglandins against glutamate toxicity (HT-22 cells): neuroprotective effects

CCCc1c(OCCCOc2ccc(OCC(=O)O)cc2)ccc(C(C)=O)c1O [L-165041]
concentrations inducing weak activity of PPARγ (PPARγ): > 51 µM
effect on glutamate toxicity (HT-22 cells; 1 nM to 50 μM, pretreated 24 h, glutamate 20 mM): failed to affect glutamate toxicity
EC50 (PPAR-β): ~0.5 µM

CC1=C(/C=C/C(C)=C\C=C\C(C)=C\C(=O)O)C(C)(C)CCC1 [9-cis retinoic acid]
effect of adding 9-cis retinoic acid on neuroprotection by 15d-PGJ2 (HT-22 cells; 1 μM 9-cis retinoic acid with 15d-PGJ2, glutamate exposure): did not alter the neuroprotective effects

CCCCC[C@H](O)/C=C/[C@H]1C=CC(=O)[C@@H]1CCCCCCC(=O)O [PGA1]
neuroprotective effect of prostaglandins against glutamate toxicity (HT-22 cells): neuroprotective effects

COC(=O)CCCCC/C=C1/C(=O)C=C[C@H]1CCCCCCc1ccc(C)cc1 [NEPP-11]
decrease of infarct volume [1]: about 50%

CC1(COc2ccc(CC3SC(=O)NC3=O)cc2)CCCCC1 (stereo not shown) [ciglitazone, 5-[4-(1-methylcyclohexylmethoxy)benzyl]-thiazolidine-2,4-dione]
neuroprotective effects (HT-22 cells; concentrations up to 40 μM): did not have any neuroprotective effects
protection against glutamate toxicity (HT-22 cells; pretreatment at various concentrations): failed to protect
affinity for PPAR-γ (PPAR-γ; similar to that of 15d-PGJ2): low micromolar (μM) range

Cc1cccc(Nc2cc(Cl)nc(SCC(=O)O)n2)c1C [WY 14,643]
EC50 (PPAR alpha): ~1.5 µM
effect at the highest concentration on glutamate toxicity (HT-22 cells; highest concentration tested, glutamate 20 mM): enhanced glutamate toxicity
prevention of glutamate-induced cell death (HT-22 cells; pretreatment 24 h, 1 to 40 μM, glutamate 20 mM): failed to prevent glutamate-induced cell death
